Measured values published in PMC6522510 (Nature Communications, 2019).
Read-outs that look alike come from different tables or passages of the source.

How the values were obtained:
CHRF288-11 = assay: Secondary dose-response HTS, Cell Titer Glo; type: cell-based, human; conditions: Homo sapiens
[1] = tested on: panel of 8 AML cell lines; assay: Secondary dose-response HTS, whole panel; type: cell-based, human; conditions: secondary HTS (Supplementary Data 2)
U937 = assay: Secondary dose-response HTS, Cell Titer Glo; type: cell-based, human; conditions: Homo sapiens, U-937
M07e = assay: Secondary dose-response HTS, Cell Titer Glo; type: cell-based, human; conditions: Homo sapiens, M-07e
ML2 = assay: Secondary dose-response HTS, Cell Titer Glo; type: cell-based, human; conditions: Homo sapiens, ML-2
CMS = assay: Secondary dose-response HTS, Cell Titer Glo; type: cell-based, human; conditions: Homo sapiens
MV4-11 = assay: Secondary dose-response HTS, Cell Titer Glo; type: cell-based, human; conditions: Homo sapiens, MV4-11
[2] = tested on: AMKL primary AML blast samples; assay: Ex vivo drug treatment of primary AML blasts on mesenchymal stromal cells; type: cell-based; conditions: Homo sapiens; primary blasts on MSC, 96 h
[3] = tested on: MLLr primary AML blast samples; assay: as above; type: cell-based; conditions: Homo sapiens; primary blasts on MSC, 96 h, range over patient samples
[4] = tested on: FLT3-ITD+ primary AML blast samples
MOLM-13 = assay: Secondary dose-response HTS, Cell Titer Glo; type: cell-based, human; conditions: Homo sapiens, MOLM-13
CMK = assay: Secondary dose-response HTS, Cell Titer Glo; type: cell-based, human; conditions: Homo sapiens, CMK
[5] = HTS, secondary high-throughput screen, CHRF288-11, read-out: average effective concentration, CHRF288-11
[6] = secondary high-throughput screen, U937, read-out: average effective concentration, U937
[7] = secondary high-throughput screen, M07e, read-out: average effective concentration, M07e
[8] = secondary high-throughput screen, read-out: average effective concentration, ML-2
[9] = HTS, secondary high-throughput screen, CMS, read-out: average effective concentration, CMS
[10] = secondary HTS, 72 h, average of triplicate, read-out: EC50 MV4-11
[11] = secondary high-throughput screen, read-out: average effective concentration, MV4-11
[12] = secondary HTS, 72 h, average of triplicate, read-out: EC50 CHRF288-11
[13] = secondary HTS, 72 h, average of triplicate, read-out: EC50 U937
[14] = secondary HTS, 72 h, average of triplicate, read-out: EC50 M07e
[15] = secondary HTS, 72 h, average of triplicate, read-out: EC50 CMS
[16] = secondary HTS, 72 h, average of triplicate, read-out: EC50 MOLM-13
[17] = secondary high-throughput screen, read-out: average effective concentration, MOLM-13
[18] = secondary HTS, 72 h, average of triplicate, read-out: EC50 CMK
[19] = secondary high-throughput screen, read-out: average effective concentration, CMK

Structure (SMILES)	EC50 (CHRF288-11; [5]) [nM]	active cell lines out of 8 in HTS [1]	EC50 (U937; [6]) [nM]	EC50 (ML2; [8]) [nM]	EC50 (CMS; [9]) [nM]	EC50 (MV4-11; [11]) [nM]	IC50 [2] [nM]	IC50 [3] [nM]	IC50 [4] [nM]	EC50 (MOLM-13; [17]) [nM]	EC50 (CMK; [19]) [nM]	further results
CON(C)C(=O)N1N=C(c2cc(F)ccc2F)S[C@@]1(CCCN)c1ccccc1 [ARRY-520, reference compound]	1	3/8	1	1	1							EC50 (M07e; [7]): 1 nM
CC(C)C[C@H](NC(=O)[C@H](CCc1ccccc1)NC(=O)CN1CCOCC1)C(=O)N[C@@H](Cc1ccccc1)C(=O)N[C@@H](CC(C)C)C(=O)[C@@]1(C)CO1 [Carfilzomib, reference compound]	19					1.1	54	4.3 to 53	6 to 62	5.44	6	EC50 (MV4-11; [10]): 1 nM; EC50 (CHRF288-11; [12]): 20 nM; EC50 (U937; [13]): 10 nM; EC50 (M07e; [14]): 1 nM; EC50 (M07e; [7]): 1.4 nM; EC50 (CMS; [15]): 1 nM; EC50 (MOLM-13; [16]): 10 nM; EC50 (CMK; [18]): 10 nM
C=CCn1c(=O)c2cnc(Nc3ccc(N4CCN(C)CC4)cc3)nc2n1-c1cccc(C(C)(C)O)n1 [MK-1775, reference compound]	10000	7/8	460	210	630	210	> 10000			370	210	
C/C=C1\NC(=O)[C@H]2CSSCC/C=C/[C@H](CC(=O)N[C@H](C(C)C)C(=O)N2)OC(=O)[C@H](C(C)C)NC1=O [Romidepsin, reference compound]	6.5		3.2	3.8		0.6	5	1.6 to 6	3.8 to 13	0.67	8	EC50 (MV4-11; [10]): 1 nM; EC50 (CHRF288-11; [12]): 10 nM; EC50 (U937; [13]): 3 nM; EC50 (M07e; [14]): 2 nM; EC50 (M07e; secondary high-throughput screen, […], read-out: average effective concentration, M07e): 1.7 nM; EC50 (ML2; secondary HTS, 72 h, average of triplicate, read-out: EC50 ML2): 4 nM; EC50 (CMS; [15]): 1 nM; EC50 (MOLM-13; [16]): 1 nM; EC50 (CMK; [18]): 10 nM
CC[C@@H]1C(=O)N(C)c2cnc(Nc3ccc(C(=O)N[C@H]4CC[C@H](N5CCN(CC6CC6)CC5)CC4)cc3OC)nc2N1C(C)C [Volasertib, reference compound]	3200	7/8	1	1	1400	8	353	62 to 482	4.6 to 931		15	
CCN(CCCOc1ccc2c(Nc3cc(CC(=O)Nc4cccc(F)c4)n[nH]3)ncnc2c1)CCOP(=O)(O)O [barasertib, reference compound]		3/8	1	1		1				7	35	
COc1cc(OC)c(/C=C/S(=O)(=O)Cc2ccc(OC)c(NCC(=O)O)c2)c(OC)c1 [rigosertib, reference compound]	17	7/8	5	15	11					6	3.61	
